Measurements from patent US20180037568A1, “MODULATORS OF METHYL MODIFYING ENZYMES, COMPOSITIONS AND USES THEREOF” (Constellation Pharmaceuticals, Inc., priority 2015, published 2018).
Like-named read-outs stand apart in the source and are kept apart here.

Legend:
PRC2 containing wt EZH2 = target: T1, PRC2 containing wt EZH2 (Homo sapiens, UniProt Q15910); test: EZH2 pep BSA Brij 4.0 LowE (IC50): 3H-SAM incorporation into biotinylated H3 peptide; type: biochemical; conditions: 20 pM PRC2 wt EZH2, 0.9 μM 3H-SAM, biotinylated H3 peptide substrate, 2 μM H3K27me3 activating peptide
T1 construct: made in house
Procedure: EZH2 Pep BSA Brij 4.0 LowE (IC50):
Compound potencies were assessed through incorporation of ^3H-SAM into a biotinylated H3 peptide. Specifically, PRC2 containing wt EZH2 (20 pM), (pentameric complexes prepared in-house) was pre-incubated with ^3H-SAM (0.9 μM), 2 μM H3K27me3 activating peptide (H2N-RKQLATKAAR(Kme3)SAPATGGVKKP-amide) and compounds (as 10 point duplicate dose response titrations in DMSO, final assay 0.8% DMSO (v/v)) for 120 min in 50 mM Tris (pH 8.5), 1 mM DTT, 0.07 mM Brij-35, 0.1% BSA, and 0.8% DMSO in a total volume of 12.5 μl. Reaction was initiated with biotinylated H3 substrate peptide (H2N-RKQLATKAAR(Kme1)SAPATGGVKKP-NTPEGBiot) as a 2 μM stock in 12.5 μl of buffer and allowed to react at room temperature for 5 h. Quenching was accomplished by addition of 20 μl of STOP solution (50 mM Tris (pH 8.5), 200 mM EDTA, 2 mM SAH). 35 μl of the quenched solution was transferred to Streptavidin Flashplates, incubated overnight, washed, and read in a TopCount Reader (Perkin Elmer). IC50s were calculated relative to fully active and no enzyme control wells using non-linear least square four parameter fits.

H3K27me3 mark = test: H3K27me3 Alpha Hela Assay (AlphaLISA); type: cell-based; conditions: Hela cells, read-out: EZH2 Cell H3K27me3 Alpha HeLa (EC50 K27me3)
Procedure: EC50 Measurements for Inhibitors in HeLa Cell Assays
H3K27me3 Alpha Hela Assay (AlphaLISA). Ten different doses of each test compound (in a series of 3-fold dilutions) were plated in duplicate 384-well tissue culture treated plates (Catalog #781080; Greiner Bio One; Monroe, N.C.). Hela cells grown in culture were trypsinized and counted using a Countess® cell counter (Catalog # C10281; Life Technologies, Grand Island, N.Y.). Cell were diluted to 67,000 cells per mL in 10% DMEM (Catalog #10569-010 Life Technologies, Grand Island, N.Y.) and 15 μL (1,000 cells) were plated into each well using the Biotek MicroFlo™ Select Dispenser (BioTek Instruments, Inc. Vermont, USA),) of the 384-well plate. Plates were incubated at 37° C./5% CO2 for 72 hrs. One of the duplicate plates was processed for HeLa assay and the other for viability.
To the plate processed for AlphaLISA was added 5 μL per well Cell-Histone Lysis buffer (1×) (Catalog # AL009F1 Perkin Elmer; Waltham, Mass.) and the plate was incubated at RT for 30 minutes on a plate shaker with low speed (Model#4625-Q Thermo Scientific; Waltham, Mass.). Then, 10 μL per well Histone Extraction buffer (catalog # AL009F2; Perkin Elmer; Waltham, Mass.) was added and the plate further incubated at RT for 20 min on plate shaker with low speed. To each well was then added 10 μL per well of a 5× mix of anti-K27me3 acceptor beads plus Biotinylated anti-Histone H3 (C-ter) Antibody (diluted to 3 nM final) (Catalog #AL118 Perkin Elmer; Waltham, Mass.). Dilution of the acceptor beads and then anti-Histone H3 was with 1× Histone Detection buffer (Catalog # AL009F3 Perkin Elmer; Waltham, Mass.) which was produced diluted from the 10× stock provided. The plate was sealed with an aluminum plate sealer and incubated at 23° C. for 60 min. We then added 10 μL 5× solution of Streptavidin Donor beads (Catalog #6760002 Perkin Elmer; Waltham, Mass.) (20 μg/mL final in 1× Histone Detection Buffer), sealed the plate with Aluminum plate sealer and incubated at 23° C. for 30 min. The plates were then read using an EnVision-Alpha Reader (model #2104 Perkin Elmer; Waltham, Mass.).
Data from both assays was analyzed using Assay Assistant (Constellation Pharmaceuticals In-house product) and Activity Base (IDBS Ltd, Surrey, UK) template. Data files were imported to Assay Assistant and assay conditions were specified. A unique Analysis ID was created and the data files exported to Activity Base. An analysis template was created on Activity Base to measure dose-dependent inhibition of H3K27me3 mark and cell viability respectively. Readout of DMSO wells were used to normalize the data. Resulting curves were fitted using Activity base software Model 205 (IDBS Ltd, Surrey, UK). The data was checked for quality, validated and integrated in excel format using SARview (IDBS Ltd, Surrey, UK).

[1] = read-out: EZH2 pep BSA Brij 4.0 LowE (IC50)
[2] = EZH2 pep BSA Brij 4.0 LowE (IC50)

T1 sequence (Q15910 whole entry): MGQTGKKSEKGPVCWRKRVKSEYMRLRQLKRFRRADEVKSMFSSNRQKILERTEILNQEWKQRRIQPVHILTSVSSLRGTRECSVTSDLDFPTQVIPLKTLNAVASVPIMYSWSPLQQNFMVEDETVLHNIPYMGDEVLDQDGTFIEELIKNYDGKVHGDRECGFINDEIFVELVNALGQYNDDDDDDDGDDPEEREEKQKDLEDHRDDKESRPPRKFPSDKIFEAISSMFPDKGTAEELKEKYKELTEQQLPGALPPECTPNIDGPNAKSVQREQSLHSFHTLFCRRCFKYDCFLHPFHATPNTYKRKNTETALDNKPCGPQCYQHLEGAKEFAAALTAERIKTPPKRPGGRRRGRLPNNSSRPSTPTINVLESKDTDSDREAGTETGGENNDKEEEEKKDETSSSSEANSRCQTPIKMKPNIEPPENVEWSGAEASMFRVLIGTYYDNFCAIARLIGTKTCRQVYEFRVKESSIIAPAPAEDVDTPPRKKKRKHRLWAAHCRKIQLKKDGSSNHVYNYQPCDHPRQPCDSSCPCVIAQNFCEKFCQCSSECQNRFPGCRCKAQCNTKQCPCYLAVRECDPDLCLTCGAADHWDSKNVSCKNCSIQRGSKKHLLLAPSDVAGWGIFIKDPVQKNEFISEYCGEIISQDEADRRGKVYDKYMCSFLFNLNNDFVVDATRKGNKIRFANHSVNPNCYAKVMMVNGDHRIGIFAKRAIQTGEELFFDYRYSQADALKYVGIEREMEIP
T1 sequence (O75530 whole entry partner): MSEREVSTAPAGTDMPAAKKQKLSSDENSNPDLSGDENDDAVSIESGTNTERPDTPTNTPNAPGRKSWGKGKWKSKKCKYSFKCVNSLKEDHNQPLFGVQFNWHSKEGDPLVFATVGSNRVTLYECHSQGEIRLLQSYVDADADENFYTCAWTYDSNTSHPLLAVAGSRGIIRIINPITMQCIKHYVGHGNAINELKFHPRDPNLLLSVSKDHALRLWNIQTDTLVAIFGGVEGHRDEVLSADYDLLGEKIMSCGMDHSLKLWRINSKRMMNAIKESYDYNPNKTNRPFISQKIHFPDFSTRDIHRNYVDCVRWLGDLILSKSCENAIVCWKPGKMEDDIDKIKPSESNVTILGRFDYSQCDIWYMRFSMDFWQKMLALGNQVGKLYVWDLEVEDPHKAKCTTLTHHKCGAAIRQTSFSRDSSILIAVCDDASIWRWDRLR
T1 sequence (Q15022 whole entry partner): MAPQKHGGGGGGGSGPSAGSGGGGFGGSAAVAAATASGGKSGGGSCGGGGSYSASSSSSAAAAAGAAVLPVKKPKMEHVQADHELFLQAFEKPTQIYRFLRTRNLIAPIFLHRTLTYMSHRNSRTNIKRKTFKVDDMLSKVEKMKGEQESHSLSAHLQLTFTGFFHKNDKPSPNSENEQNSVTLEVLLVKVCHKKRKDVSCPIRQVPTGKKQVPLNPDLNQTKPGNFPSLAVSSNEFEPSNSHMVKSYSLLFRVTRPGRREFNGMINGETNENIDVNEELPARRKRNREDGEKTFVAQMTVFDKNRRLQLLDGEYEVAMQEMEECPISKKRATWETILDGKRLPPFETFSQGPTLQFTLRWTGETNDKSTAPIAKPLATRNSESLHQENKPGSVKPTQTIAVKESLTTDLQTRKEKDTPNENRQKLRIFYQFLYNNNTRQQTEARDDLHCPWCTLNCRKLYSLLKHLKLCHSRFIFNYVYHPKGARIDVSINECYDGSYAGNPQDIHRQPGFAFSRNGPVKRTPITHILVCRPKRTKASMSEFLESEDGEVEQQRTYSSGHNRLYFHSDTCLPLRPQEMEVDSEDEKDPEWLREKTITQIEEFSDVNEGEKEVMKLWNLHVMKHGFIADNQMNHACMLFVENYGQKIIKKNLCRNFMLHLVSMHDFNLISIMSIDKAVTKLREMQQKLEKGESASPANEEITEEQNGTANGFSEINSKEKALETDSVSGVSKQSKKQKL
T1 sequence (Q09028 whole entry partner): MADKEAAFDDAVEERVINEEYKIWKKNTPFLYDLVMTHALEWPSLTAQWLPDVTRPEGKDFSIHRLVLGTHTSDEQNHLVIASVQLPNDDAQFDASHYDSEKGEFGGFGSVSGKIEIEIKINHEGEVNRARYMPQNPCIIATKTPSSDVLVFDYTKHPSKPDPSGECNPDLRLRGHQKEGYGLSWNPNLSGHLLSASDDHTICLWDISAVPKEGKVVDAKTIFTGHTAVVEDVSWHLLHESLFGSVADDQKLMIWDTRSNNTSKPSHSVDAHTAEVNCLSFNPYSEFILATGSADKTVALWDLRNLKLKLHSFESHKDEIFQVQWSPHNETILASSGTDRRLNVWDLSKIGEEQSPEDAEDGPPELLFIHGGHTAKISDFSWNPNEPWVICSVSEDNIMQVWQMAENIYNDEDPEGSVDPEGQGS
T1 sequence (Q6ZN18 whole entry partner): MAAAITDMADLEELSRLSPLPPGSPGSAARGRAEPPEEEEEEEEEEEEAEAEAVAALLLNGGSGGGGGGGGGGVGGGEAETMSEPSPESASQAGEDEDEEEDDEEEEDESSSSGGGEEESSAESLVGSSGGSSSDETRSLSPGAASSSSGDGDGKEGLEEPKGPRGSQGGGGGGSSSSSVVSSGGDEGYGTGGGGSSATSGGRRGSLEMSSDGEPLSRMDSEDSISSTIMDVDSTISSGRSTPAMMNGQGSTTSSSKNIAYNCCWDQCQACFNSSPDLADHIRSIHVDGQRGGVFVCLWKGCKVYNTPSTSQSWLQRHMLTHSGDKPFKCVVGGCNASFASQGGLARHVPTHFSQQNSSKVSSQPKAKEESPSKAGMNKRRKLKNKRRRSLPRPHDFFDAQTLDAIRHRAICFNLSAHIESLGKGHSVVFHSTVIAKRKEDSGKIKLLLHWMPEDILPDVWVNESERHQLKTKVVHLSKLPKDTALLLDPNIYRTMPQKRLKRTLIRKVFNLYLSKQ

COc1cc(C)[nH]c(=O)c1CNC(=O)c1c(C)n(C(C)C2CCNC(c3ccccc3F)C2)c2ccccc12 (centres unmarked) [Compound 66]
IC50 (PRC2 containing wt EZH2; [1]): < 100 nM | EC50 (H3K27me3 mark; Homo sapiens, HeLa, 72 h): 400 to 2000 nM

CCC1CC(C(C)n2c(C)c(C(=O)NCc3c(C)cc(C)[nH]c3=O)c3ccccc32)CCN1CC(F)F (centres unmarked) [Compound 68]
IC50 (PRC2 containing wt EZH2; [1]): < 100 nM | EC50 (H3K27me3 mark; 72 hrs): > 2000 nM

CCC1CC(C(C)n2c(C)c(C(=O)NCc3c(C)cc(C)[nH]c3=O)c3ccccc32)CCN1CC(F)F (centres unmarked) [Compound 69]
IC50 (PRC2 containing wt EZH2; [1]): < 100 nM | EC50 (H3K27me3 mark; 72 hrs): > 2000 nM

COc1cc(C)[nH]c(=O)c1CNC(=O)c1c(C)n(C(C)C2CCN(CC(C)(F)F)C(C)C2)c2ccccc12 (centres unmarked) [Compound 70]
IC50 (PRC2 containing wt EZH2; [2]): < 100 nM | EC50 (H3K27me3 mark; 72 hrs): 400 to 2000 nM

CCC1CC(C(C)n2c(C)c(C(=O)NCc3c(C)cc(C)[nH]c3=O)c3ccccc32)CCN1CC(F)F (centres unmarked) [Compound 71]
IC50 (PRC2 containing wt EZH2; [1]): < 100 nM | EC50 (H3K27me3 mark; 72 hrs): < 400 nM

COc1cc(C)[nH]c(=O)c1CNC(=O)c1c(C)n(C(C)C2CCN(CC(C)(F)F)C(C)C2)c2ccccc12 (centres unmarked) [Compound 72]
IC50 (PRC2 containing wt EZH2; [2]): 100 to 1000 nM | EC50 (H3K27me3 mark; 72 hrs): > 2000 nM

COc1cc(C)[nH]c(=O)c1CNC(=O)c1c(C)n(C(C)C2CCN(CC(C)(F)F)C(C)C2)c2ccccc12 (centres unmarked) [Compound 73]
IC50 (PRC2 containing wt EZH2; [2]): < 100 nM | EC50 (H3K27me3 mark; 72 hrs): < 400 nM

Cc1cc(C)c(CNC(=O)c2c(C)n(C(C)C3CCNC(CC(F)(F)F)C3)c3ccccc23)c(=O)[nH]1 (centres unmarked) [Compound 84]
IC50 (PRC2 containing wt EZH2; [1]): < 100 nM | EC50 (H3K27me3 mark; Homo sapiens, HeLa, 72 h): 400 to 2000 nM

COc1cc(C)[nH]c(=O)c1CNC(=O)c1c(C)n(C(C)C2CCNC(CC(F)(F)F)C2)c2ccccc12 (centres unmarked) [Compound 88]
IC50 (PRC2 containing wt EZH2; [2]): < 100 nM | EC50 (H3K27me3 mark; 72 hrs): > 2000 nM

COc1cc(C)[nH]c(=O)c1CNC(=O)c1c(C)n(C(C)C2CCNC(CC(F)(F)F)C2)c2ccccc12 (centres unmarked) [Compound 89]
IC50 (PRC2 containing wt EZH2; [2]): < 100 nM | EC50 (H3K27me3 mark; 72 hrs): 400 to 2000 nM

COc1cc(C)[nH]c(=O)c1CNC(=O)c1c(C)n(C(C)C2CCNC(CC(F)(F)F)C2)c2ccccc12 (centres unmarked) [Compound 90]
IC50 (PRC2 containing wt EZH2; [2]): < 100 nM | EC50 (H3K27me3 mark; 72 hrs): 400 to 2000 nM

CCS(=O)(=O)N1CCC(C(C)n2c(C)c(C(=O)NCc3c(OC)cc(C)[nH]c3=O)c3ccccc32)CC1C (centres unmarked) [Compound 91]
IC50 (PRC2 containing wt EZH2; [2]): < 100 nM | EC50 (H3K27me3 mark; Homo sapiens, HeLa, 72 h): > 2000 nM

COc1cc(C)[nH]c(=O)c1CNC(=O)c1c(C)n(C(C)C2CCN(C)C(c3cccc(C(=O)O)c3)C2)c2ccccc12 (centres unmarked) [Compound 92]
IC50 (PRC2 containing wt EZH2; [1]): < 100 nM | EC50 (H3K27me3 mark; 72 hrs): 400 to 2000 nM
